In the supplement of paper PMC3493320:
Several values for one entry are separate records, joined by “and”; a condition that tells them apart may be missing. Equal entries are not always repeated.

Experiments:
NCI-H295R [1] = assay: maximal response (efficacy) relative to DMSO (0%) and doxorubicin (-100%); higher = less growth inhibition; conditions: 48 h
NCI-H295R [2] = assay: IC50 (antiproliferative, ATP content); conditions: 48 h
Procedure, shortened: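 In 1536-well plates, 1500 adrenocortical carcinoma cells per well were grown overnight in serum-free, ITS-supplemented DMEM before compounds were pin-transferred at 8 final concentrations (0.6 nM to 46 µM). After 48 h at 37 °C and 5% CO2, CellTiter-Glo luminescence was read following 20 min at room temperature and normalised to vehicle and positive-control wells. IC50 values came from logistic curve fits, with compounds lacking any concentration response listed as above the top dose.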

| SMILES | maximal response (NCI-H295R [1]) | IC50 (NCI-H295R [2]) |
| --- | --- | --- |
| CCNC(=O)N1CCN(CCCC(c2ccc(F)cc2)c2ccc(F)cc2)CC1.Cl | -34.2% |  |
| CCOC(=O)Oc1c(OC)cc(cc1OC)C(=O)O[C@@H]4C[C@@H]5CN6CC\C3=C(\Nc2cc(OC)ccc23)[C@H]6C[C@@H]5[C@H](C(=O)OC)[C@H]4OC | -30.6% |  |
| O=C(O)c1cc(O)c2c(c1)[C@H]([C@H]1c3cc(C(=O)O)cc(O)c3C(=O)c3c(O[C@@H]4O[C@H](CO)[C@@H](O)[C@H](O)[C@H]4O)cccc31)c1cccc(O[C@@H]3O[C@H](CO)[C@@H](O)[C@H](O)[C@H]3O)c1C2=O | -34.5% |  |
| OC[C@H]1O[C@@H](n2cnc3c(O)ncnc32)[C@H](O)[C@@H]1O | 26.5% |  |
| Cl.Cl/C(=C\n1cncn1)c1ccc(Cl)cc1Cl | -28.8% |  |
| OC(=O)[C@]3(C)C[C@H]4/C5=C/C(=O)[C@H]2[C@@](C)(CC[C@@H]1[C@]2(C)CC[C@H](O)C1(C)C)[C@]5(C)CC[C@@]4(C)CC3 | -50.7% | > 46 µM |
| O=C(Nc1ncc([N+](=O)[O-])s1)c1cccs1 | -58.5% |  |
| CCc1cc(Cl)c(OC)c(C(=O)NC[C@@H]2CCCN2CC)c1O.Cl | -24.8% |  |
| COc1cc(CNC(=O)CCCC/C=C/C(C)C)ccc1O | -21.6% |  |
| COC(=O)Nc1nc2cc(C(=O)c3cccs3)ccc2[nH]1 | -53.8% |  |
| Nc1ccc(C(=O)Nc2ccccc2N)cc1 | -43.9% |  |
| O=C1c2cccc(O)c2C(=O)c2c(O)cccc21 | -35.8% |  |
| COc1cc2c(c(OC)c1OC)-c1ccc(OC)c(=O)cc1[C@@H](NC(C)=O)CC2 | -49.9% |  |
| CCc1cccc(N(C)C(=N)Nc2cccc3ccccc23)c1.Cl | -29.2% |  |
| O=C(Nc1ccc(Cl)cc1)Nc1ccc(Cl)c(Cl)c1 | -41.7% |  |
| C[C@]12CC[C@@H]3c4ccc(O)cc4CC[C@H]3[C@@H]1CC[C@@H]2OC(=O)CCC1CCCC1 | -33.7% | > 46 µM |
| CCCc1nc2c(C)cc(-c3nc4ccccc4n3C)cc2n1Cc1ccc(-c2ccccc2C(=O)O)cc1 | -22.7% |  |
| O=C(N/N=C/c1ccccc1O)c1ccncc1 | -33.1% |  |
| Oc1ccc(O)cc1 | -31.2% |  |
| COC(=O)C1=C(C#N)NC(C)=C(C(=O)OC(C)C)C1c1cccc([N+](=O)[O-])c1 (stereo not given) | -23.9% |  |
| O=C(O)Cc1cc(I)c(Oc2ccc(O)c(I)c2)c(I)c1 | -31.4% |  |
| Cc1cc2nc3c(=O)[nH]c(=O)nc-3n(C[C@H](O)[C@H](O)[C@H](O)COP(=O)([O-])OP(=O)([O-])OC[C@H]3O[C@@H](n4cnc5c(N)ncnc54)[C@H](O)[C@@H]3O)c2cc1C.[Na+].[Na+] | 22% |  |
| Nc1ncnc2c1ncn2[C@@H]1O[C@H](COP(=O)(O)O)[C@@H](O)[C@@H]1O | 22% |  |
| Cc1c(C(=O)O)c(O)cc2c1C(=O)c1c(O)c([C@@H]3O[C@H](CO)[C@@H](O)[C@H](O)[C@H]3O)c(O)c(O)c1C2=O | -50.2% |  |
| O=C(C4=CC(OC)=C(C(OC)=C4)OC)O[C@@H]1C[C@@]3([H])[C@@](C[C@](N5C3)([H])C2=C(CC5)C(C=CC=C6)=C6N2)([H])[C@H]([C@](OC)=O)[C@H]1OC | -51.8% |  |

| SMILES | maximal response (NCI-H295R [1]) | IC50 (NCI-H295R [2]) |
| --- | --- | --- |
| COC(=O)c1ccccc1C(=O)c1ccc(OCCN2CCCCC2)cc1.Cl | -26.8% |  |
| O=[N+]([O-])c1c(Cl)cccc1-c1c[nH]cc1Cl | -29.2% |  |
| O[C@@]3(C#C)CC[C@H]2[C@@H]4CC/C1=C/c5oncc5C[C@]1(C)[C@H]4CC[C@@]23C | -27.4% |  |
| COC1=CC(=O)C[C@@H](C)[C@]12Oc1c(Cl)c(OC)cc(OC)c1C2=O | -30.5% |  |
| CCCCN(CCCC)CC(O)c1cc(Cl)cc2c1-c1ccc(Cl)cc1/C2=C/c1ccc(Cl)cc1 (stereo not given) | -31.5% |  |
| CCCOc1ccc2[nH]c(NC(=O)OC)nc2c1 | -48.4% |  |
| Nc1nc(Cl)nc2c1ncn2[C@@H]1O[C@H](CO)[C@@H](O)[C@@H]1F | -29.5% |  |
| O[C@@]1(CC)C[C@H](C2)C[C@@]([C@]7=C(OC)C=C6N(C)[C@]5([H])[C@@](C6=C7)(CC9)[C@](N9CC=C8)([H])[C@]8(CC)[C@@H](OC(C)=O)[C@@](O)5[C@@](OC)=O)([C@](OC)=O)C(NC4=CC=CC=C34)=C3CCN2C1.O=S(O)(O)=O | -54.7% and -52.9% |  |
| COC(=O)Nc1nc2cc(Sc3ccccc3)ccc2[nH]1 | -54.1% |  |
| COC(=O)Nc1nc2cc(C(=O)c3ccccc3)ccc2[nH]1 | -50.2% |  |
| O=C3C1=C(NC(N)=N3)NC=C1CCC2=CC=C(C(N[C@H]([C@@]([O-])=O)CCC([O-])=O)=O)C=C2.[Na+].[Na+] | -56.4% |  |
| CC(CN(C)C)CN1c2ccccc2Sc2ccc(C(F)(F)F)cc21.O=C(O)C=CC(=O)O (stereo not given) | -30.2% |  |
| CCC(O)c1ccccc1 (stereo not given) | -25.2% |  |
| COc1cc([C@@H]2c3cc4c(cc3[C@H](O)[C@H]3COC(=O)[C@H]23)OCO4)cc(OC)c1OC | -50.8% |  |
| O=C([O-])C1=C(CSc2nnnn2CS(=O)(=O)[O-])CS[C@@H]2[C@H](NC(=O)[C@H](O)c3ccccc3)C(=O)N12.[Na+].[Na+] | 25.5% |  |
| COc1cc(C=C2CCCC(=Cc3ccc(O)c(OC)c3)C2=O)ccc1O | -130% |  |
| CC(=O)Oc1ccc2c(c1)CC[C@@H]1[C@@H]2CC[C@]2(C)[C@@H](O)CC[C@@H]12 | -30.8% |  |
| N\1(C(N(C(CC)C)/N=C/1)=O)c7ccc(N2CCN(CC2)c6ccc(OC[C@@H]5O[C@](c3c(cc(cc3)Cl)Cl)(Cn4ncnc4)OC5)cc6)cc7 (stereo not given in full) | -23.1% |  |
| CCCCc1ccc2[nH]c(NC(=O)OC)nc2c1 | -49.6% |  |
| Cc1ccc2c(Br)cc(Br)c(O)c2n1 | -71.4% |  |
| CC(C)c1c(C(=O)Nc2ccccc2)c(-c2ccccc2)c(-c2ccc(F)cc2)n1CC[C@@H](O)C[C@@H](O)CC(=O)[O-].CC(C)c1c(C(=O)Nc2ccccc2)c(-c2ccccc2)c(-c2ccc(F)cc2)n1CC[C@@H](O)C[C@@H](O)CC(=O)[O-].[Ca+2] | -29.1% |  |
| Clc1ccc(C(Cn2ccnc2)OCc2csc3c(Cl)cccc23)c(Cl)c1.O=[N+]([O-])O (stereo not given) | -24.9% |  |
| NC(=O)N/N=C/c1ccc([N+](=O)[O-])o1 | -20.7% |  |
| CC(=O)O[C@H]\1CC[C@H]4C(=C/1)/CC[C@@H]2[C@@H]4CC[C@]3(C)[C@@](CC[C@@H]23)(C#C)OC(C)=O | -26.3% |  |
| O[C@@H]1C4=C(C)[C@@H](OC([C@H](O)[C@H]([C@@]6=CC=CC=C6)NC(OC(C)(C)C)=O)=O)C[C@@](C(C)4C)(O)[C@@H](OC(C5=CC=CC=C5)=O)[C@@]([C@]2(OC(C)=O)CO[C@@H]2C[C@@H]3O)([H])[C@]3(C)C1=O | -59.5% |  |

| SMILES | maximal response (NCI-H295R [1]) | IC50 (NCI-H295R [2]) |
| --- | --- | --- |
| C/C(=C\c1csc(C)n1)[C@@H]1C[C@@H]2O[C@]2(C)CCC[C@H](C)[C@H](O)[C@@H](C)C(=O)C(C)(C)[C@@H](O)CC(=O)O1 | -57.6% |  |
| O=C(N)[C@@](C2=CC=CC=C2)([C@H]3CN(CCC4=CC(CCO5)=C5C=C4)CC3)C1=CC=CC=C1.Br | -31.7% |  |
| Cl.O=C(C[C@@H]1NCCC[C@H]1O)Cn1cnc2cc(Br)c(Cl)cc2c1=O | -28.3% |  |
| O=S(=O)([O-])c1ccc2c(/N=N/c3ccc(S(=O)(=O)[O-])c4ccccc34)c(O)c(S(=O)(=O)[O-])cc2c1.[Na+].[Na+].[Na+] | -50.2% |  |
| COC(=O)C1=C(C)NC(C)=C(C(=O)OC(C)(C)CN(C)CCC(c2ccccc2)c2ccccc2)C1c1cccc([N+](=O)[O-])c1.Cl (stereo not given) | -45.6% |  |
| Nc1c(/N=N/c2ccc(-c3ccc(/N=N/c4cc(S(=O)(=O)[O-])c5ccccc5c4N)cc3)cc2)cc(S(=O)(=O)[O-])c2ccccc12.[Na+].[Na+] | -53.2% |  |
| CC(C)[C@H](N)C(=O)OCC(CO)OCn1cnc2c(=O)nc(N)[nH]c21.Cl (stereo not given in full) | -28.1% |  |
| Oc1ccc(Cl)c2cccnc12 | -33.2% |  |
| COc1cc(C(=O)OCCCN2CCCN(CCCOC(=O)c3cc(OC)c(OC)c(OC)c3)CC2)cc(OC)c1OC | -31.2% |  |
| CCCOc1ccc2nc(NC(=O)OC)sc2c1 | -48.5% |  |
| S=C1SCN(Cc2ccccc2)CN1Cc1ccccc1 | -29.7% |  |
| N[C@H](C(=O)O)[C@@H]1CC(Cl)=NO1 | -39.1% |  |
| [O-][n+]1ccccc1SSc1cccc[n+]1[O-] | -23.5% |  |
| O=[C@@](OC)[C@](C(N3)=C4C2=C3C=CC=C2)([C@@]5=CC([C@]69[C@]8([H])[C@](C=CCN8CC9)(CC)[C@@H](OC(C)=O)[C@](O)([C@](OC)=O)[C@@]([H])6N7C=O)=C7C=C5OC)C[C@H]1C[C@](CC)(O)CN(CC4)C1 | -44.6% |  |
| CCC/C=C/C=C/C(=O)O[C@H]1/C(=C/C(=O)OC)C[C@H]2C[C@H]([C@@H](C)O)OC(=O)C[C@H](O)C[C@@H]3C[C@H](OC(C)=O)C(C)(C)[C@](O)(C[C@@H]4C/C(=C/C(=O)OC)C[C@H](/C=C/C(C)(C)[C@]1(O)O2)O4)O3 | -41.4% |  |
| O=[N+]([O-])c1cc(I)c(O)c(I)c1 | -32.6% |  |
| CC1=CC(=O)[N-]S(=O)(=O)O1.[K+] | -79.3% |  |
| COc1cc2c(cc1OC)C(C(C(=O)N(CCc1ccc(OC)c(OC)c1OC)CCc1ccc(OC)c(OC)c1OC)c1ccccc1)=NCC2.Cl (stereo not given) | -28.4% |  |
| CN[C@H]1CCc2cc(OC)c(OC)c(OC)c2-c2ccc(OC)c(=O)cc21 | -53.1% |  |
| F\C1=C\N(C(=O)NC1=O)[C@H]2C[C@H](O)[C@@H](CO)O2 | -37.6% |  |
| CCN(CC)C(=S)SSC(=S)N(CC)CC | -27.3% |  |
| CN(C)CCCN1c2ccccc2CCc2ccccc21 | -21% |  |
| Cl.Cl.OCCN1CCN(CCCN2c3ccccc3C=Cc3ccccc32)CC1 | -69.8% |  |
